US20250356957A1, “EMULATOR OF SUBCUTANEOUS ABSORPTION AND RELEASE” (UNIVERSITY OF KANSAS, priority 2022, published 2025)

Assay: ESCAR drug release tests for acetaminophen solution (factor screening)
Format: in vitro ADME
Conditions: center position injection, 10 mg/mL solution
Experimental: Acetaminophen solution (10 mg/mL) and the subcutaneous chamber (Version 1; FIG. 2C) were used across different runs. Both the “lymphatic circulation” and “blood circulation” chambers were filled with 75 mL of PBS (pH 7.4), and the subcutaneous chamber was filled with 2.8 mL of HA/PBS solution. At the surrounding areas of the interfaces, a layer of mounting tape was assembled to prevent liquid leakage. Sequentially, the “subcutaneous”/“blood circulation” interface was assembled with a SpectraPor® dialysis membrane (MWCO: 50 kDa), and the “subcutaneous”/“lymphatic circulation” interface was assembled with a SpectraPor® dialysis membrane (MWCO: 300 kDa). All membranes were pre-soaked in DI water for at least 1 h before use. The drug release tests were conducted at 34° C. in a convective oven, with mild magnetic stirring in the “blood circulation” and “lymphatic circulation” chambers. […] A 18-run full factorial experimental design was employed to evaluate three factors, HA concentration (three levels: 2.5, 5, 10 mg/mL), injection volume (three levels: 0.25, 0.5, 1 mL), and injection position/needle tip position to the membrane at the “subcutaneous”/“blood circulation” interface (two levels: 0.2, 0.5 cm). At the pre-set time points, 1.5 mL of aliquots were withdrawn from the “blood circulation” chamber with the replacement of the same volume of PBS. Each run was conducted in triplicate.

release fraction (%) at 8-hr (2.5 mg/mL HA solution): ~60%
release fraction (%) at 8-hr (5 mg/mL HA solution): ~30%
release fraction (%) at 8-hr (10 mg/mL HA solution): ~15%
release fraction (%) at 8-hr (subcutaneous medium PBS): ~80%
Structure (SMILES): CC(=O)Nc1ccc(O)cc1 [acetaminophen, Acetaminophen]
